According to ChEMBL document CHEMBL1129985, “Cytotoxicity and antiestrogenicity of a novel series of basic diphenylethylenes” (J Med Chem, 1997):

Columns and labels:
MCF7 [1] = test: Cytotoxicity against MCF-7 cells in presence of 1 uM E2 (estradiol); format: functional, Homo sapiens
MCF7 [2] = test: Cytotoxicity against MCF-7 cells in the absence of 1 uM E2 (estradiol); format: functional, Homo sapiens
Estrogen receptor = Estrogen receptor (Homo sapiens, UniProt Q92731+P03372); conditions: mvln
MCF7 [3] = test: Cytostaticity against MCF-7 cells in the presence of 1 uMolar E2 (estradiol); format: functional, cell-based; conditions: Homo sapiens
[4] = target: Estrogen receptor (Ovis aries) (UniProt P49885+Q9TU15); test: Relative binding affinity for estrogen receptor in lamb uterus cytosol relative to estradiol; format: protein assay

| Structure (SMILES) | Cytotoxicity (MCF7 [1]) [µM] | Cytotoxicity (MCF7 [2]) [µM] | IC50 (Estrogen receptor) [nM] | IC50 (MCF7 [3]) [nM] | relative binding affinity (RBA) [4] |
| --- | --- | --- | --- | --- | --- |
| CCCCC/C=C(/c1ccc(O)cc1)c1ccc(OCCN(C)C)cc1 | 9.3 | 8.5 | 1500 | 2400 |  |
| CCN(CC)CCOc1ccc(/C(=C\C(C)C)c2ccc(O)cc2)cc1 | 9.4 | 9.2 | 500 | 2400 |  |
| CCCCCC/C=C(/c1ccc(O)cc1)c1ccc(OCCN(CC)CC)cc1 | 3 | 2.9 | 1900 | 1600 |  |
| CCCCCCCC/C=C(/c1ccc(O)cc1)c1ccc(OCCN(CC)CC)cc1 | 2.9 | 5.1 | 3500 | 1700 |  |
| CC(C)N(CCOc1ccc(C(=C2CCCCC2)c2ccc(OCCN(C(C)C)C(C)C)cc2)cc1)C(C)C | 8 | 30 | 2100 | 4200 |  |
| CCN(CC)CCOc1ccc(/C(=C/C(C)C)c2ccc(O)cc2)cc1 | 8.8 | 8.4 | 1700 | 1700 |  |
| CCCCCC/C=C(\c1ccc(O)cc1)c1ccc(OCCN(CC)CC)cc1 | 3.8 | 2.8 | 2500 | 1200 |  |
| CCCCC/C=C(\c1ccc(O)cc1)c1ccc(OCCN(CC)CC)cc1 | 3.2 | 2.7 | 3200 | 1100 | 0.1 |
| CC(C)C=C(c1ccc(OCCN(C(C)C)C(C)C)cc1)c1ccc(OCCN(C(C)C)C(C)C)cc1 | 4.5 | 3.6 | 3100 | 1600 |  |
| CCCC/C=C(\c1ccc(O)cc1)c1ccc(OCCN(CC)CC)cc1 | 3 | 2.9 | 1500 | 1600 |  |
| CCCCCCCC/C=C(\c1ccc(O)cc1)c1ccc(OCCN(CC)CC)cc1 | 3 | 3.6 | 4700 | 1600 |  |
| CCN(CC)CCOc1ccc(/C(=C\Cc2ccccc2)c2ccc(O)cc2)cc1 | 4.3 | 3.2 | 1300 | 1800 |  |
| CCCCCC=C(c1ccc(OCCN(CC)CC)cc1)c1ccc(OCCN(CC)CC)cc1 | 1.3 | 2.7 | 6000 | 700 |  |
| CCN(CC)CCOc1ccc(/C(=C/Cc2ccccc2)c2ccc(O)cc2)cc1 | 3 | 2.9 | 1700 | 1700 |  |
| CCCCC/C=C(\c1ccc(O)cc1)c1ccc(OCCN(C)C)cc1 | 3 | 2.9 | 1800 | 1700 |  |
| CCCC/C=C(/c1ccc(O)cc1)c1ccc(OCCN(CC)CC)cc1 | 5.2 | 4.4 | 500 | 1700 |  |
| CC(C)N(CCOc1ccc(C(=C2CCCCC2)c2ccc(O)cc2)cc1)C(C)C | 5 | 3.8 | 200 | 1800 |  |
| CCCC/C(CC)=C(/c1ccc(O)cc1)c1ccc(OCCN(CC)CC)cc1.CCCC/C(CC)=C(\c1ccc(O)cc1)c1ccc(OCCN(CC)CC)cc1 | 2.8 | 2.8 | 150 | 1000 |  |
| CCCCC/C=C(/c1ccc(O)cc1)c1ccc(OCCN(CC)CC)cc1 | 3.2 | 2.9 | 900 | 1600 |  |
| CCCCCCCCCCCCCC/C=C(\c1ccc(O)cc1)c1ccc(OCCN(CC)CC)cc1 | 30 | 30 | 9500 | 8000 |  |
| CCCCCCCCCCCCCC/C=C(/c1ccc(O)cc1)c1ccc(OCCN(CC)CC)cc1 | 30 | 30 | 8000 | 7900 |  |
| CCCCC/C=C(\c1ccc(O)cc1)c1ccc(OCCN2CCCC2)cc1 | 2.9 | 2.9 | 3300 | 1600 |  |
| CC/C(=C(\c1ccc(O)cc1)c1ccc(OCCN(C)C)cc1)c1ccccc1 | 9.4 | 6 |  | 8000 |  |
| CC/C(=C(\c1ccccc1)c1ccc(OCCN(C)C)cc1)c1ccccc1 [TAMOXIFEN] | 13 | 9.8 |  | 8000 |  |
